Reference: PubChem BioAssay AID192 (DTP/NCI, 2004)
Several values for one entry are separate records, joined by “and”; a condition that tells them apart may be missing. Identical values can stand only once. Inconclusive results and toxic doses are left out. The calls were made as follows: active = survival T/C of 150% or more; inactive = T/C below 125% in these data.

Test system: BDF1 mice, B16 melanoma ip, median survival T/C
Assay: NCI In Vivo Anticancer Drug Screen. Data for tumor model B16 Melanoma (intraperitoneal) in B6D2F1 (BDF1) mice
Conditions: endpoint: median survival time, higher = longer survival
Summary of the method: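 Transplantable tumor model; survival or tumor size measured; reported as T/C, treated over vehicle control.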

[1] = dose: 6.25 mg/kg/injection, schedule: Q01DX009 (ip), vehicle: saline with Tween-80
[2] = dose: 12.5 mg/kg/injection, schedule: Q01DX009 (ip), vehicle: saline with Tween-80
[3] = dose: 25.0 mg/kg/injection, schedule: Q01DX009 (ip), vehicle: saline with Tween-80
[4] = dose: 50.0 mg/kg/injection, schedule: Q01DX009 (ip), vehicle: saline with Tween-80
[5] = dose: 25.0 mg/kg/injection, schedule: Q01DX009 (ip), vehicle: saline
[6] = dose: 50.0 mg/kg/injection, schedule: Q01DX009 (ip), vehicle: saline
[7] = dose: 100.0 mg/kg/injection, schedule: Q01DX009 (ip), vehicle: saline
[8] = dose: 12.5 mg/kg/injection, schedule: Q01DX009 (ip), vehicle: Klucel (hydroxypropylcellulose) (HPC)
[9] = dose: 25.0 mg/kg/injection, schedule: Q01DX009 (ip), vehicle: Klucel (hydroxypropylcellulose) (HPC)
[10] = dose: 50.0 mg/kg/injection, schedule: Q01DX009 (ip), vehicle: Klucel (hydroxypropylcellulose) (HPC)
[11] = dose: 100.0 mg/kg/injection, schedule: Q01DX009 (ip), vehicle: Klucel (hydroxypropylcellulose) (HPC)
[12] = dose: 75.0 mg/kg/injection, schedule: Q01DX009 (ip), vehicle: Klucel (hydroxypropylcellulose) (HPC)
[13] = dose: 200.0 mg/kg/injection, schedule: Q01DX009 (ip), vehicle: Klucel (hydroxypropylcellulose) (HPC)
[14] = dose: 400.0 mg/kg/injection, schedule: Q01DX009 (ip), vehicle: Klucel (hydroxypropylcellulose) (HPC)
[15] = dose: 1.0 mg/kg/injection, schedule: Q01DX009 (ip), vehicle: saline sonified
[16] = dose: 100.0 mg/kg/injection, schedule: Q01DX009 (ip), vehicle: saline with Tween-80
[17] = dose: 200.0 mg/kg/injection, schedule: Q01DX009 (ip), vehicle: saline with Tween-80
[18] = dose: 400.0 mg/kg/injection, schedule: Q01DX009 (ip), vehicle: saline with Tween-80

Measured: T/C

Nc1nc(=S)c2ncn(C3CC(O)C(CO)O3)c2[nH]1 (stereo unspecified)
inactive: dose: 1.25 mg/kg/injection, schedule: Q01DX009 (ip), vehicle: saline with Tween-80 104 % of control | dose: 1.25 mg/kg/injection, schedule: Q01DX009 (ip), vehicle: saline 102 % of control | dose: 2.5 mg/kg/injection, schedule: Q01DX009 (ip), vehicle: saline with Tween-80 117 % of control | dose: 2.5 mg/kg/injection, schedule: Q01DX009 (ip), vehicle: saline 93 % of control | dose: 5.0 mg/kg/injection, schedule: Q01DX009 (ip), vehicle: saline with Tween-80 113 % of control | dose: 5.0 mg/kg/injection, schedule: Q01DX009 (ip), vehicle: saline 104 % of control | dose: 10.0 mg/kg/injection, schedule: Q01DX009 (ip), vehicle: saline 104 % of control | dose: 12.5 mg/kg/injection, schedule: Q01DX009 (ip), vehicle: saline sonified 112 % of control | dose: 20.0 mg/kg/injection, schedule: Q01DX009 (ip), vehicle: saline 100 % of control | dose: 25.0 mg/kg/injection, schedule: Q01DX009 (ip), vehicle: saline sonified 110 % of control | dose: 50.0 mg/kg/injection, schedule: Q01DX009 (ip), vehicle: saline sonified 87 % of control

O=C(O[Si](Cc1ccccc1)(Cc1ccccc1)Cc1ccccc1)N(CCCl)CCCl
inactive: [1] 100 % of control | [2] 112 % of control | [3] 104 % of control | [4] 108 % of control

CC#CCOCC1CN(c2ccccc2)C(=O)O1 (stereo unspecified)
inactive: [5] 102 % of control | [6] 97 % of control | [7] 102 % of control | dose: 100.0 mg/kg/injection, schedule: Q04DX003 (ip), vehicle: saline with Tween-80 97 % of control | dose: 200.0 mg/kg/injection, schedule: Q01DX009 (ip), vehicle: saline 100 % of control | dose: 200.0 mg/kg/injection, schedule: Q04DX003 (ip), vehicle: saline with Tween-80 94 % of control | dose: 400.0 mg/kg/injection, schedule: Q01DX009 (ip), vehicle: saline 97 % of control | dose: 400.0 mg/kg/injection, schedule: Q04DX003 (ip), vehicle: saline with Tween-80 94 % of control

NC(=O)OCCCc1ccccc1
inactive: [8] 100 % of control | [9] 94 % of control | [10] 100 % of control | [11] 107 % of control

CCN(CC)Cc1cc2[nH]c3c4ccc(Cl)cc4ncc3c2cc1OC
inactive: [1] 95 % of control | [2] 98 % of control | [3] 98 % of control

N#CCN1CCCN(CC#N)C1
inactive: [12] 96 % of control

COc1ccc(NC(=O)Oc2c(C(C)C)cccc2C(C)C)cc1
inactive: [11] 96 % of control | dose: 100.0 mg/kg/injection, schedule: Q04DX003 (ip), vehicle: Klucel (hydroxypropylcellulose) (HPC) 110 % of control | [13] 96 % of control | dose: 200.0 mg/kg/injection, schedule: Q04DX003 (ip), vehicle: Klucel (hydroxypropylcellulose) (HPC) 103 % of control | [14] 89 % of control | dose: 400.0 mg/kg/injection, schedule: Q04DX003 (ip), vehicle: Klucel (hydroxypropylcellulose) (HPC) 103 % of control

CN1CCC=C(C(=O)N2c3ccccc3CCc3ccccc32)C1
inactive: [5] 97 % of control | [6] 87 % of control | [7] 91 % of control

C[N+](C)(C)c1cc2c(nn1)Nc1ccccc1S2
inactive: dose: 3.12 mg/kg/injection, schedule: Q01DX009 (ip), vehicle: Klucel (hydroxypropylcellulose) (HPC) 101 % of control | dose: 6.25 mg/kg/injection, schedule: Q01DX009 (ip), vehicle: Klucel (hydroxypropylcellulose) (HPC) 98 % of control | [8] 101 % of control | [9] 101 % of control | [10] 102 % of control | [11] 89 % of control

Cc1cccc2cc3c(ccc4ccccc43)c[n+]12
inactive: [15] 105 % of control | dose: 2.0 mg/kg/injection, schedule: Q01DX009 (ip), vehicle: saline sonified 107 % of control | dose: 4.0 mg/kg/injection, schedule: Q01DX009 (ip), vehicle: saline sonified 102 % of control

C[Si](C)(C)Cc1ccccc1
inactive: [11] 114 % of control | [13] 109 % of control

CCC1NC(=O)C(NC(=O)c2ncccc2O)C(C)OC(=O)C(c2ccccc2)NC(=O)C2CC(=O)CCN2C(=O)C(Cc2ccccc2)N(C)C(=O)C2CCCN2C1=O (stereo unspecified) (tested in a mixture with another compound)
inactive: dose: 18.75 mg/kg/injection, schedule: Q01DX009 (ip), vehicle: Klucel (hydroxypropylcellulose) (HPC) 104 % of control | dose: 37.5 mg/kg/injection, schedule: Q01DX009 (ip), vehicle: Klucel (hydroxypropylcellulose) (HPC) 108 % of control | [12] 108 % of control

NC1=C(N2CC2)C(=O)C(N)=C(N2CC2)C1=O
inactive: dose: 6.0 micrograms/kg/injection, schedule: Q01DX009 (ip), vehicle: saline 112 % of control | dose: 12.5 micrograms/kg/injection, schedule: Q01DX009 (ip), vehicle: saline 112 % of control | dose: 25.0 micrograms/kg/injection, schedule: Q01DX009 (ip), vehicle: saline 105 % of control | dose: 50.0 micrograms/kg/injection, schedule: Q01DX009 (ip), vehicle: saline 120 % of control | dose: 200.0 micrograms/kg/injection, schedule: Q01DX009 (ip), vehicle: saline 124 % of control

O=C1/C(=N/O)CCc2ccccc21
inactive: [10] 91 % of control | [11] 100 % of control

COc1ccc(OC(=O)Nc2ccccc2OC)cc1
inactive: [11] 100 % of control | [13] 93 % of control | [14] 93 % of control

O=C(O)/C(=C/c1ccc(O)cc1)c1ccccc1
inactive: [16] 110 % of control | [17] 100 % of control | [18] 92 % of control

CC(C)NC(=O)N(c1ccccc1)c1ccccc1
inactive: dose: 75.0 mg/kg/injection, schedule: Q01DX009 (ip), vehicle: gum acacia 99 % of control | dose: 150.0 mg/kg/injection, schedule: Q01DX009 (ip), vehicle: gum acacia 103 % of control | dose: 300.0 mg/kg/injection, schedule: Q01DX009 (ip), vehicle: gum acacia 99 % of control

CC[CH2][Sn]([Cl])([Cl])[CH2]CC.Oc1ccccc1C=NCCN=Cc1ccccc1O
inactive: dose: 0.6 mg/kg/injection, schedule: Q01DX009 (ip), vehicle: gum acacia 95 % of control | dose: 0.61 mg/kg/injection, schedule: Q01DX009 (ip), vehicle: gum acacia 100 % of control | dose: 1.25 mg/kg/injection, schedule: Q01DX009 (ip), vehicle: gum acacia 92 % of control and 100 % of control | dose: 2.5 mg/kg/injection, schedule: Q01DX009 (ip), vehicle: gum acacia 92 % of control and 94 % of control | dose: 5.0 mg/kg/injection, schedule: Q01DX009 (ip), vehicle: gum acacia 90 % of control and 97 % of control

C/C(C/C(C)=N/O)=N/O.C/C(C/C(C)=N/O)=N\O.[Cl][Rh][Cl]
inactive: [4] 96 % of control | [16] 98 % of control | [17] 96 % of control | [18] 92 % of control

COc1c2c([n+](C)c3c(OC)cccc13)OC(C(C)C)C2 (stereo unspecified)
inactive: dose: 0.25 mg/kg/injection, schedule: Q01DX009 (ip), vehicle: saline sonified 102 % of control | dose: 0.5 mg/kg/injection, schedule: Q01DX009 (ip), vehicle: saline sonified 100 % of control | dose: 0.75 mg/kg/injection, schedule: Q01DX009 (ip), vehicle: saline 94 % of control | [15] 102 % of control | dose: 1.5 mg/kg/injection, schedule: Q01DX009 (ip), vehicle: saline 88 % of control | dose: 1.5 mg/kg/injection, schedule: Q04DX003 (ip), vehicle: saline 107 % of control | dose: 3.0 mg/kg/injection, schedule: Q04DX003 (ip), vehicle: saline 89 % of control

Cc1ccc(NS(=O)(=O)c2ccc(F)cc2)cc1C
inactive: [11] 96 % of control | [13] 100 % of control | [14] 93 % of control

COc1cc2c(c(OC)c1OC)C(=O)/C(=C\c1ccccc1)O2
inactive: [1] 101 % of control | [2] 106 % of control | [3] 103 % of control | [4] 86 % of control

OC(CC1(O)C(F)(F)C(F)(F)C1(F)F)c1ccccc1 (stereo unspecified)
inactive: [4] 107 % of control | [16] 110 % of control | [17] 94 % of control
